Results as given in patent US6218112A, “Optimization of gene delivery and gene delivery system” (Cobra Therapeutics Limited, priority 1997, dated 2001).
Where two headings read alike, the source gives them in different places. * marks the point of attachment. Acm = CC(=O)NC*

What was measured:
[1] = tested on: plasmid nucleic acid pRSVLuc; assay: Surface plasmon resonance (BIAcore) binding kinetics of peptides/conjugates to immobilized biotinylated plasmid DNA; conditions: for ka: apparent rate constant for association; for Kd: read-out: equilibrium dissociation constant KD
cells = assay: Transfection efficiency / activity of complexes (general statement); type: cell-based; conditions: related to affinity for nucleic acid

Row | Kd ([1]; approximate value, unit inferred) | association reaction ([1]; shape of association kinetics) | Substance | ka ([1]; SPR, PBS, 25° C.) | apparent dissociation constant kd ([1]; approximate values) | transfection efficiency (cells) | kd ([1]; apparent rate constant for dissociation, SPR, PBS, 25° C.) | Kd ([1]; approximate values)
1 | ~0.5 nM | clear biphasic kinetics | NH2-TKKAWKKAEKKAAKKCGVSAKKAAKKAWKKA-CONH2 (H-TKKAWKKAEKKAAKKCGVSAKKAAKKAWKKA-NH2) [NBC11] | 20700 M⁻¹ s⁻¹ | approximately 1.6×10^-4 sec^-1 | not completely deleterious to transfection |  | 
2 |  |  | NH2-KKSPKKAKKPAAKKSPKKAKKPAYC(Acm)-COOH (H-KKSPKKAKKPAAKKSPKKAKKPAYC(Acm)-OH; SMILES CC(=O)NCSC[C@H](NC(=O)[C@H](Cc1ccc(O)cc1)NC(=O)[C@H](C)NC(=O)[C@@H]1CCCN1C(=O)[C@H](CCCCN)NC(=O)[C@H](CCCCN)NC(=O)[C@H](C)NC(=O)[C@H](CCCCN)NC(=O)[C@H](CCCCN)NC(=O)[C@@H]1CCCN1C(=O)[C@H](CO)NC(=O)[C@H](CCCCN)NC(=O)[C@H](CCCCN)NC(=O)[C@H](C)NC(=O)[C@H](C)NC(=O)[C@@H]1CCCN1C(=O)[C@H](CCCCN)NC(=O)[C@H](CCCCN)NC(=O)[C@H](C)NC(=O)[C@H](CCCCN)NC(=O)[C@H](CCCCN)NC(=O)[C@@H]1CCCN1C(=O)[C@H](CO)NC(=O)[C@H](CCCCN)NC(=O)[C@@H](N)CCCCN)C(=O)O) [NBC8] | 50000 M⁻¹ s⁻¹ | approximately 1×10^-2 sec^-1 |  | 0.06248 s⁻¹ | ~1000 nM
